# Experimental data from US20110065632A1, “PHARMACEUTICAL COMPOSITIONS OF SOMATOSTATIN-DOPAMINE CONJUGATES” (priority 2008, published 2011).
# Where two headings read alike, the source gives them in different places. Numbered stars: 1 amine (or outer) side, 2 acyl side, 3 side chain; on linkers, the order of the positions; unused ones are H or OH. Bridge positions count the residues as written; N and C are the ends. Square brackets hold non-standard residues; d marks the D form. Peptide text beside a SMILES is read from it. * marks the point of attachment. X3 = CCCN1C[C@H](CSCC(=O)Oc2ccc(C[C@H](N[*:1])C(=O)[*:2])cc2I)C[C@@H]2c3cccc4[nH]cc(c34)C[C@H]21; X1 = CCCN1C[C@H](CSCC(=O)*)C[C@@H]2c3cccc4[nH]cc(c34)C[C@H]21; Abu = CC[C@H](N)C(=O)O; AEEA = NCCOCCOCC(=O)O
# Experiments:
# hsst5 = molecular target: T1, hsst5 (Homo sapiens, UniProt P35346); experiment: Somatostatin receptor radioligand binding assay, hsst5; conditions: CHO-K1 membranes, [125I-Tyr11]SS-14
# T1 construct: expressed in transfected cells
# T1 sequence (P35346 whole entry): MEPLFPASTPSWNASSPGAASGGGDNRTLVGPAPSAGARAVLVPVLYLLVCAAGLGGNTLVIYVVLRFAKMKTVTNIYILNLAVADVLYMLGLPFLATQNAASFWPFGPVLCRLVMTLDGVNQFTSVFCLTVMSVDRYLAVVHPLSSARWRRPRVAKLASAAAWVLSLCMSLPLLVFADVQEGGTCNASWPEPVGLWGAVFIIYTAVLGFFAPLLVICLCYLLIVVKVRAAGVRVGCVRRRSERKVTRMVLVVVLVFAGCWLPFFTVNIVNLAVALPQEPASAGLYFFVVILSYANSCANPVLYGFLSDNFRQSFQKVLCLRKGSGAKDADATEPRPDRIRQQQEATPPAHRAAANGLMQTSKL
# Method: (§1) Specificity and selectivity of the somatostatin analogues used to synthesize the somatostatin-dopamine chimers were determined by a radioligand binding assay on CHO-K1 cells stably transfected with each of the SSTR subtypes, as follows. Somatostatin analogs are also described in U.S. Patent Application Publication No. 02210006790. The complete coding sequences of genomic fragments of the SSTR 1 (e.g., Genbank accession No. M81829), SSTR 2 (e.g., Genbank accession No. M81830), SSTR 3 (e.g., Genbank accession No. L07062), and SSTR 4 (e.g., Genbank accession No. AL049651) genes and a cDNA clone for SSTR 5 (e.g., Genbank accession No. D16827) was subcloned into the mammalian expression vector pCMV (Life Technologies, Milano, Italy). Other SSTR sequences are known to the skilled artisan. Clonal cell lines stably expressing SSTR's 1-5 were obtained by transfection into CHO-K1 cells (ATCC, Manassas, Va., USA) using the calcium phosphate co-precipitation method (Davis L, et al., 1994 In: Basic methods in Molecular Biology, 2nd edition, Appleton & Lange, Norwalk, Conn., USA: 611-646). The plasmid pRSV-neo (ATCC) was included as a selectable marker. Clonal cell lines were selected in RPMI 1640 media containing 0.5 mg/mL of G418 (Life Technologies, Milano, Italy), ring cloned, and expanded into culture.
# (§2) Membranes for in vitro receptor binding assays were obtained by homogenizing the CHO-K1 cells expressing the SSTR's subtypes in ice-cold 50 mM Tris-HCl and centrifuging twice at 39,000 g (10 min), with an intermediate resuspension in fresh buffer. The final pellets were resuspended in 10 mM Tris-HCl for assay.
# (§3) For the SSTR 1, 3, 4, and 5 assays, aliquots of the membrane preparations were incubated 90 minutes at 25° C. with 0.05 nM [^125I-Tyr11]SS-14 in 50 mM HEPES (pH 7.4) containing 10 mg/mL BSA, 5 mM MgCl2, 200 KIU/mL Trasylol, 0.02 mg/mL bacitracin, and 0.02 mg/mL phenylmethylsuphonyl fluoride. The final assay volume was 0.3 mL.
# (§4) For the SSTR 2 assay, 0.05 nM [^125I]MK-678 was employed as the radioligand and the incubation time was 90 minutes at 25° C. The incubations were terminated by rapid filtration through GF/C glass microfiber filters (Whatman Co.) (pre-soaked in 0.3% polyethylenimine) using a BRANDEL filtration manifold. Each tube and filter was washed three times with 5 mL aliquots of ice-cold buffer. Specific binding was defined as the total radioligand bound minus that bound in the presence of 1000 nM SS-14 for SSTR 1, 3, 4, and 5, or 1000 nM MK-678 for SSTR2.
# hUTII = molecular target: T2, hUTII (Homo sapiens, UniProt Q9UKP6); experiment: hUTII inhibition constant; type: binding; conditions: read-out: hUTII Ki
# T2 sequence (Q9UKP6 1-389): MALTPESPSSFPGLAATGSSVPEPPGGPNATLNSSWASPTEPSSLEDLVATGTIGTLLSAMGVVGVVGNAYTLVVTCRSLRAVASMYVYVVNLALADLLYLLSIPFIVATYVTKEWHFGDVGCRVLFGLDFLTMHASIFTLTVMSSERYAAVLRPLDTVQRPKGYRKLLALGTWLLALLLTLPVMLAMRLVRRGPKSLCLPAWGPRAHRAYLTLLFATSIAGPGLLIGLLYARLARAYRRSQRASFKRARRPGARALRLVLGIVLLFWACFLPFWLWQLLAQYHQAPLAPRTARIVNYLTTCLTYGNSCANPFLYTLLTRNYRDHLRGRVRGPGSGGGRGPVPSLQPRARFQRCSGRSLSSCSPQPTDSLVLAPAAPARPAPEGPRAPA
# Method: (§5) Using the discussed assays, the inhibition constants (Ki) for the five human somatostatin receptors (hSSTR1-hSSTR5) and the dopamine-2 receptor (hUTII and hDA2) were measured for the exemplified somatostatin-dopamine conjugates, as follows: […]
# hsst1 = molecular target: T3, hsst1 (Homo sapiens, UniProt P30872); experiment: Somatostatin receptor radioligand binding assay, hsst1
# T3 construct: expressed in transfected cells
# T3 sequence (P30872 whole entry): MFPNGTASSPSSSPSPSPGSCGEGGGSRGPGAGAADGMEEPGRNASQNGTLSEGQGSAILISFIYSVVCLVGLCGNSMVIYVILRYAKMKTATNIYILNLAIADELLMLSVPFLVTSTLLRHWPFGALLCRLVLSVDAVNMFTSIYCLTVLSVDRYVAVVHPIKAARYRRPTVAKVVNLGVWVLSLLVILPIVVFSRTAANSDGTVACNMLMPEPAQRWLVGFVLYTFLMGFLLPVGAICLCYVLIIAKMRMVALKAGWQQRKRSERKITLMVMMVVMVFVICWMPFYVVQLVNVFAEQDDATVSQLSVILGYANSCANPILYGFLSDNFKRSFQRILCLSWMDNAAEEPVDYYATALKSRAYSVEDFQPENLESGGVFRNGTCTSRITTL
# Method: as §1, §2, §3, §4, §5
# hDA2 = experiment: Dopamine-2 receptor radioligand binding assay; parameters: species or system human; conditions: [3H]spiperone
# Method: Specificity and selectivity for the dopamine-2 receptor of the dopamine analogues used to synthesize the somatostatin-dopamine chimers may be determined by a radioligand binding assay as follows.
# Crude membranes were prepared by homogenization of frozen rat corpus striatum (Zivic Laboratories, Pittsburgh, Pa., USA) in 20 mL of ice-cold 50 mM Tris-HCl with a Brinkman Polytron cell disrupter (setting 6, 15 sec). Buffer was added to obtain a final volume of 40 mL, and the homogenate was centrifuged in a Sorval SS-34 rotor at 39,000 g for 10 minutes at 0-4° C. The resulting supernatant was decanted and discarded. The pellet was rehomogenized in ice-cold buffer, pre-incubated at 37° C. for 10 min, diluted, and centrifuged as before. The final pellet was resuspended in buffer and held on ice for the receptor binding assay.
# For assay, aliquots of the washed membrane preparations and test compounds were incubated for 15 minutes (37° C.) with 0.25 nM [^3HI]spiperone (16.5 Ci.mmol, New England Nuclear, Boston, Mass., USA) in 50 mM Tris HCl, 120 mM NaCl, 5 mM KCl, 2 mM CaCl2, 1 mM MgCl2. The final assay volume was 1.0 mL. The incubations were terminated by rapid filtration through GF/B glass fibre filters using a Brandel filtration manifold. Each tube and filter was then washed three times with 5-mL aliquots of ice-cold buffer. Specific binding was defined as the total radioligand bound minus that bound in the presence of 1000 nM (+) butaclamol.
# as §5
# hsst3 = molecular target: T4, hsst3 (Homo sapiens, UniProt P32745); experiment: Somatostatin receptor radioligand binding assay, hsst3
# T4 construct: expressed in transfected cells
# T4 sequence (P32745 whole entry): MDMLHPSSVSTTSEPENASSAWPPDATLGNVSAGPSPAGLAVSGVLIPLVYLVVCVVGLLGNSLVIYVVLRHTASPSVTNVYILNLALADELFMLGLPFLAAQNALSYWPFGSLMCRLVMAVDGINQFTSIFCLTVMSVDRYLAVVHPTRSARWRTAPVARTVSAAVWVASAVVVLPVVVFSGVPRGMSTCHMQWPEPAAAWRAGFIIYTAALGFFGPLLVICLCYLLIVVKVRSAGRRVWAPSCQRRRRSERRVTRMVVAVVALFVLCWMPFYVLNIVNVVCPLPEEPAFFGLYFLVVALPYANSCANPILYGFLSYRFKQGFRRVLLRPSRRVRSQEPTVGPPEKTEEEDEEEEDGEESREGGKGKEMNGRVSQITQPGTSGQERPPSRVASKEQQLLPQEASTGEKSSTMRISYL
# Method: as §1, §2, §3, §4, §5
# hsst2 = molecular target: T5, hsst2 (Homo sapiens, UniProt P30874); experiment: Somatostatin receptor radioligand binding assay, hsst2; conditions: CHO-K1 membranes, [125I]MK-678; read-out: hsst2 Ki
# T5 construct: expressed in transfected cells
# T5 sequence (P30874 whole entry): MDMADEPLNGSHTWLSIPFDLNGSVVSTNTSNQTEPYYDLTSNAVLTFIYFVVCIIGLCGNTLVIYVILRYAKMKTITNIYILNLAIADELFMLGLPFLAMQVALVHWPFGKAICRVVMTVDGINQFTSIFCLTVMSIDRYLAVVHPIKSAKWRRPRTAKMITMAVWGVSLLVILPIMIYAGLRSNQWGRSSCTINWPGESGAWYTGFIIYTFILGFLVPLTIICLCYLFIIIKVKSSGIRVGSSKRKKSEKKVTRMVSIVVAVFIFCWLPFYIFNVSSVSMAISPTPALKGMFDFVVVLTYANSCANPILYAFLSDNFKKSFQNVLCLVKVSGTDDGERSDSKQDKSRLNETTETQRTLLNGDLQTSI
# Method: as §1, §2, §4
# [1] = CHO-K1 membranes, [125I-Tyr11]SS-14, read-out: hsst1 Ki
# [2] = CHO-K1 membranes, [125I-Tyr11]SS-14, read-out: hsst3 Ki
Ki (hsst5; read-out: hsst5 Ki) [nM],Ki (hUTII) [nM],Ki (hsst1; [1]) [nM],Ki (hDA2) [nM],Ki (hsst3; [2]) [nM],Ki (hsst2) [nM],Compound,Ki (hsst5; hsst5 Ki) [nM],Ki (hsst1) [nM],Ki (hsst3) [nM]
27.6,105,1000,15.5,1050,1.65,CCCN1C[C@H](CSCC(=O)N[C@H](Cc2ccccc2)C(=O)NCCOCCOCC(=O)N[C@H](Cc2ccccc2)C(=O)N[C@H]2CSSC[C@@H](C(=O)N[C@H](C(N)=O)[C@@H](C)O)NC(=O)[C@H](C(C)C)NC(=O)[C@H](CCCCN)NC(=O)[C@@H](Cc3c[nH]c4ccccc34)NC(=O)[C@H](Cc3ccc(OC(=O)CSC[C@@H]4C[C@@H]5c6cccc7[nH]cc(c67)C[C@H]5N(CCC)C4)c(I)c3)NC2=O)C[C@@H]2c3cccc4[nH]cc(c34)C[C@H]21 [Example 5] (X1-[dF][AEEA][dF]C[X3][dW]KVCT-NH2; disulfide 4-9),,,
56.5,677,509,65,798,0.51,C=CCN1C[C@H](C(=O)N(CCCN(C)CC(=O)N[C@H](Cc2ccccc2)C(=O)N[C@H]2CSSC[C@@H](C(=O)N[C@H](C(N)=O)[C@@H](C)O)NC(=O)[C@H](CC)NC(=O)[C@H](CCCCN)NC(=O)[C@@H](Cc3c[nH]c4ccccc34)NC(=O)[C@H](Cc3ccc(O)cc3)NC2=O)C(=O)NCC)C[C@@H]2c3cccc4[nH]cc(c34)C[C@H]21 [Example 6],,,
28.6,695,345,193,267,0.19,CCNC(=O)N(CCCN(C)CC(=O)N[C@H](Cc1ccccc1)C(=O)N[C@H]1CSSC[C@@H](C(=O)N[C@H](C(N)=O)[C@@H](C)O)NC(=O)[C@H](CC)NC(=O)[C@H](CCCCN)NC(=O)[C@@H](Cc2c[nH]c3ccccc23)NC(=O)[C@H](Cc2ccc(O)cc2)NC1=O)C(=O)[C@H]1CN[C@@H]2Cc3c[nH]c4cccc(c34)[C@H]2C1 [Example 7],,,
24.5,167,1550,86,126,0.11,CCCN1C[C@H](CSCC(=O)NCCOCCOCC(=O)N[C@H](Cc2ccccc2)C(=O)N[C@H]2CSSC[C@@H](C(=O)N[C@H](C(N)=O)[C@@H](C)O)NC(=O)[C@H](CC)NC(=O)[C@H](CCCCN)NC(=O)[C@@H](Cc3c[nH]c4ccccc34)NC(=O)[C@H](Cc3ccc(O)cc3)NC2=O)C[C@@H]2c3cccc4[nH]cc(c34)C[C@H]21 [Example 8],,,
26.5,177,549,8.22,324,0.15,CCCN1C[C@H](CSCC(=O)NCCCC[C@H](NC(=O)CSC[C@@H]2C[C@@H]3c4cccc5[nH]cc(c45)C[C@H]3N(CCC)C2)C(=O)N[C@H](Cc2ccc(O)cc2)C(=O)N[C@H](Cc2ccc(O)cc2)C(=O)N[C@H]2CSSC[C@@H](C(=O)N[C@H](C(N)=O)[C@@H](C)O)NC(=O)[C@H](CC)NC(=O)[C@H](CCCCN)NC(=O)[C@@H](Cc3c[nH]c4ccccc34)NC(=O)[C@H](Cc3ccc(O)cc3)NC2=O)C[C@@H]2c3cccc4[nH]cc(c34)C[C@H]21 [Example 10] (X1-K(X1)[dY][dY]CY[dW]K[Abu]CT-NH2; disulfide 4-9),,,
8.91,64.4,437,119,162,0.04,CCCN1C[C@H](CSCC(=O)NCCCC[C@H](NC(C)=O)C(=O)N[C@H](Cc2ccc(O)cc2)C(=O)N[C@H](Cc2ccc(O)cc2)C(=O)N[C@H]2CSSC[C@@H](C(=O)N[C@H](C(N)=O)[C@@H](C)O)NC(=O)[C@H](CC)NC(=O)[C@H](CCCCN)NC(=O)[C@@H](Cc3c[nH]c4ccccc34)NC(=O)[C@H](Cc3ccc(O)cc3)NC2=O)C[C@@H]2c3cccc4[nH]cc(c34)C[C@H]21 [Example 11] (Ac-K(X1)[dY][dY]CY[dW]K[Abu]CT-NH2; disulfide 4-9),,,
4.1,676,602,25.2,51.5,,CCCN1C[C@H](CSCC(=O)N[C@H](Cc2ccccc2)C(=O)N[C@H]2CSSC[C@@H](C(=O)N[C@H](C(N)=O)[C@@H](C)O)NC(=O)[C@H]([C@@H](C)O)NC(=O)[C@H](CCCCN)NC(=O)[C@@H](Cc3c[nH]c4ccccc34)NC(=O)[C@H](Cc3ccc(O)c(I)c3)NC2=O)C[C@@H]2c3cccc4[nH]cc(c34)C[C@H]21 [Example 12],,,
10.7,,907,15.2,196,,CCCN1C[C@H](CSCC(=O)NCCCC[C@@H](NC(=O)CSC[C@@H]2C[C@@H]3c4cccc5[nH]cc(c45)C[C@H]3N(CCC)C2)C(=O)N[C@H](Cc2ccccc2)C(=O)N[C@H]2CSSC[C@@H](C(=O)N[C@H](C(N)=O)[C@@H](C)O)NC(=O)[C@H]([C@@H](C)O)NC(=O)[C@H](CCCCN)NC(=O)[C@@H](Cc3c[nH]c4ccccc34)NC(=O)[C@H](Cc3ccc(O)c(I)c3)NC2=O)C[C@@H]2c3cccc4[nH]cc(c34)C[C@H]21 [Example 13],,,
2.68,1510,1340,44.3,70.3,,CCCN1C[C@H](CSCC(=O)NCCCC[C@@H](NC(C)=O)C(=O)N[C@H](Cc2ccccc2)C(=O)N[C@H]2CSSC[C@@H](C(=O)N[C@H](C(N)=O)[C@@H](C)O)NC(=O)[C@H]([C@@H](C)O)NC(=O)[C@H](CCCCN)NC(=O)[C@@H](Cc3c[nH]c4ccccc34)NC(=O)[C@H](Cc3ccc(O)c(I)c3)NC2=O)C[C@@H]2c3cccc4[nH]cc(c34)C[C@H]21 [Example 14],,,

Compound,Ki (hsst5; read-out: hsst5 Ki) [nM],Ki (hUTII) [nM],Ki (hsst1; [1]) [nM],Ki (hDA2) [nM],Ki (hsst3; [2]) [nM],Ki (hsst2) [nM],Ki (hsst5; hsst5 Ki) [nM],Ki (hsst1) [nM],Ki (hsst3) [nM]
CCCN1C[C@H](CSCC(=O)NCCCC[C@H](NC(=O)CSC[C@@H]2C[C@@H]3c4cccc5[nH]cc(c45)C[C@H]3N(CCC)C2)C(=O)N[C@H]2CSSC[C@@H](C(=O)N[C@H](C(N)=O)[C@@H](C)O)NC(=O)[C@H](CC)NC(=O)[C@H](CCCCN)NC(=O)[C@@H](Cc3c[nH]c4ccccc34)NC(=O)[C@H](Cc3ccc(O)cc3)NC2=O)C[C@@H]2c3cccc4[nH]cc(c34)C[C@H]21 [Example 9],,635,,8.3,,0.54,99.5,273,536
